Reference: patent publication US6352714B1, “Method of producing a metal nutrient for an animal feed” (DER, Inc., priority 2000, dated 2002)

Test system: nursery pigs
Experiment: Chromium supplementation feeding study in nursery pigs (growth performance)
Format: in vivo
Settings: diet with 400 ppb chromium
Excerpt: A study was made to determine the effects of chromium leather hydrolysate supplementation in nursery pigs, as compared with other complexes, namely chromium picolinate and a yeast chromium complex. In this study, three groups of forty pigs each, with a mean weaning age of 17.6 days, were fed diets containing the chromium leather hydrolysate proteinate, chromium tripicolinate, or yeast chromium complex. In addition, a control group of forty pigs were not fed a supplement. In all cases, the chromium containing complex contained 400 ppb of chromium. Data relating to the average daily gains were obtained over three phases with Phase I being 0-7 days, Phase II being 8-14 days, and Phase III being 15-21 days.
In the above Table, ADG is “average daily gain” and ADFI is “average daily feed intake”.

chromium tripicolinate [Chromium picolinate]
ADFI (average daily feed intake) (Phase I, 0-7 days): 545 gms
ADG (average daily gain) (Phase I, 0-7 days): 250 gms
Gain/Feed (Phase I, 0-7 days): 0.54
ADFI (average daily feed intake) (Phase II, 8-14 days): 1.43 kg
ADG (average daily gain) (Phase II, 8-14 days): 0.92 kg
Gain/Feed (Phase II, 8-14 days): 0.67
ADFI (average daily feed intake) (Phase III, 15-21 days): 2.61
ADG (average daily gain) (Phase III, 15-21 days): 1.26 kg
Gain/Feed (Phase III, 15-21 days): 0.48
